From patent US12102086B2, “Antimicrobial peptide Spampcin56-86 from Scylla paramamosain and applications thereof” (XIAMEN UNIVERSITY, priority 2021, dated 2024)
Residues, ends and D or L forms follow the SMILES beside them.

Assays:
L. monocytogenes = test: MIC and MBC determination; format: cell-based, Listeria Monocytogenes; conditions: CGMC NO. 1.10753, Gram-positive
F. solani = conditions: CGMC NO. 3.5840, fungi
A. baumannii QZ20142 = conditions: A. baumannii QZ20142, drug-resistant clinical isolate
F. oxysporum = conditions: CGMC NO. 3.6785, fungi
E. faecium = test: MIC and MBC determination; format: cell-based, Enterococcus Faecium; conditions: CGMC NO. 1.131, Gram-positive
S. epidermidis = conditions: CGMC NO. 1.4260, Gram-positive
A. sobria = conditions: Gram-negative
A. hydrophila = conditions: CGMC NO. 1.2017, Gram-negative
E. faecalis = test: MIC and MBC determination; format: cell-based, Enterococcus Faecalis; conditions: CGMC NO. 1.2135, Gram-positive
P. fluorescens = test: MIC and MBC determination; format: cell-based, Pseudomonas fluorescens; conditions: CGMC NO. 1.3202, Gram-negative
P. aeruginosa = conditions: CGMC NO. 1.2421, Gram-negative
E. tarda = conditions: Gram-negative
A. baumannii = conditions: CGMC NO. 1.6769, Gram-negative

Compound: CC(C)C[C@H](NC(=O)CNC(=O)[C@H](Cc1c[nH]cn1)NC(=O)[C@H](C)NC(=O)[C@H](C)NC(=O)[C@H](CCCNC(=N)N)NC(=O)[C@@H](N)CCCNC(=N)N)C(=O)N[C@@H](CC(C)C)C(=O)N1CCC[C@H]1C(=O)N[C@@H](CCCNC(=N)N)C(=O)N[C@@H](CC(C)C)C(=O)N[C@@H](CCCNC(=N)N)C(=O)N[C@@H](C)C(=O)N1CCC[C@H]1C(=O)N1CCC[C@H]1C(=O)N1CCC[C@H]1C(=O)N[C@@H](Cc1ccccc1)C(=O)N[C@@H](Cc1c[nH]cn1)C(=O)N[C@@H](CCCCN)C(=O)N[C@@H](CCCNC(=N)N)C(=O)N[C@@H](CS)C(=O)N[C@H](C(=O)N[C@@H](CS)C(=O)N[C@@H](CC(C)C)C(=O)N[C@@H](CS)C(=O)N[C@@H](CCCNC(=N)N)C(=O)N[C@H](C(=O)N[C@@H](C)C(=O)N1CCC[C@H]1C(=O)N1CCC[C@H]1C(=O)N1CCC[C@H]1C(=O)O)[C@@H](C)O)C(C)C [Spampcin56-86] (H-RRAAHGLLPRLRAPPPFHKRCVCLCRTAPPP-OH; N-terminus and C-terminus assumed)
- MBC (L. monocytogenes): 1.5-3^ μM
- MIC (L. monocytogenes): 1.5-3^ μM
- MBC (F. solani): 3 to 6 µM
- MIC (F. solani): 1.5-3^ μM
- MBC (A. baumannii QZ20142): 3 to 6 µM
- MIC (A. baumannii QZ20142): 3 to 6 µM
- MBC (F. oxysporum): 3 to 6 µM
- MIC (F. oxysporum): 3 to 6 µM
- MBC (E. faecium): 1.5-3^ μM
- MIC (E. faecium): 0 to 1.5 µM
- MBC (S. epidermidis): 3 to 6 µM
- MIC (S. epidermidis): 3 to 6 µM
- MBC (A. sobria): 3 to 6 µM
- MIC (A. sobria): 3 to 6 µM
- MBC (A. hydrophila): 6 to 12 µM
- MIC (A. hydrophila): 6 to 12 µM
- MBC (S. aureus QZ19132): 12 to 24 µM
- MIC (A. baumannii QZ20143): 3 to 6 µM
- MBC (E. faecalis): 1.5-3^ μM
- MIC (E. faecalis): 1.5-3^ μM
- MBC (P. fluorescens): 1.5-3^ μM
- MIC (P. fluorescens): 1.5-3^ μM
- MBC (S. aureus): 3 to 6 µM
- MBC (P. aeruginosa): 3 to 6 µM
- MIC (P. aeruginosa): 1.5-3^ μM
- MBC (E. coli): 3 to 6 µM
- MIC (E. coli): 3 to 6 µM
- MBC (E. tarda): 24 to 48 µM
- MIC (E. tarda): 3 to 6 µM
- MBC (A. baumannii): 3 to 6 µM
- MIC (A. baumannii): 3 to 6 µM
